From patent US6083920A, “Compositions for modulating intracellular inositol trisphosphate concentration” (priority 1996, dated 2000)

Test system: cultured neurons
Assay: Lysosphingolipid content of cultured neurons by NBDZF fluorescence tagging
Assay type: cell-based, chick
Details: for lysosphingolipid content, 0 hours of incubation / lysosphingolipid content, 0.5 hours of incubation / lysosphingolipid content, 1.0 hours of incubation / lysosphingolipid content, 2.0 hours of incubation / lysosphingolipid content, 3.0 hours of incubation: Intact neurons, 10 μmolar exposure; for content of sphingosine in the neurons following exposure: exposure to 50 μM lysosphingolipid, 1 hour
Description: Agonist-binding to metabotropic receptors influences the levels of lysosphingolipid in neuronal membranes. However, there is no convenient methodology available for the measurement of lysosphingolipid content in cultured neurons. As a result, a sensitive method of fluorometric tracing has been devised and is described herein. The measurement of lysosphingolipid content in cultured neurons is based on the stable fluorescence-tagging procedure using 4-fluoro, 7-nitrobenzofuran (NBDZF) described by Nozowa et al J. Neurochem. 59:607-609, 1992). The procedure was applied to: resting neurons; neurons exposed to 100 μM metabotropic receptor agonist for 1 hour; resting neurons exogenously enriched in lysosphingolipids; and neurons exogenously enriched in lysosphingolipids and exposed to metabotropic receptor agonist for 1 hour. The neurons were scraped in batches of 107 (1 Petri dish, approximately 8 cm in diameter, is equivalent to 2 mg membrane protein) and subjected to anaylsis.
Total lipids were removed from the neuron samples by repeated extraction with chloroforn:methanol (2:1, vol:vol). The lysosphingolipids were separated from total neuronal lipid in 90±5% recovery yield (n=10) by the stepped chromatographic procedure of Van Veldhoven et al. (Anal. Biochem. 183:177-189, 1989). The recovered lysosphingolipids were stably tagged with NBDZF by the rapid procedure of Nozowa et al. (supra). The fluorescence tagged neuronal lysosphingolipids were separated in parallel with reference standards NBDZF-Sph, NBDZF-Psy, and NBDZF-Lsm on high performance silica gel thin layer chromatography plates with acetonitrile:H2 O (10:0.5, vol:vol). The highly fluorescent, well separated bands were scraped from the plate. The fluorescence tagged lysosphingolipids are eluted from the scraped silica gel with methanol:1 N HCl (1:0.02, vol:vol). The fluorescence tagged lysosphingolipid eluates were quantitated against reference standards by fluorescence measurement in a Perkin-Elmer LS-5 Fluorescence Spectrometer.
Sphingolipid content of neurons exposed to sphingosine, lysocerebroside, and lysosphingomyelin was examined as follows. A Petri dish containing approximately 107 neurons was incubated with 5 μCi [^3 H]myo-Ins in 3 ml DMEM overnight to prelabel the phosphoinositide InsP3 may contain. The neurons were washed with PBS and 3 ml of PBS containing 4.5 g/l glucose was added. Preparations of sphingosine, lysocerebroside, lysosphingomyelin (Sigma Chemical Co., St. Louis, Mo.) and combinations of each were prepared as the hydrochloride salt dissolved in PBS. The lysosphingolipids were added to the Petri dishes to produce a concentration ranging from 0-150 μM. […] Trypsinization removes non-specifically bound lysosphingolipids that may adhere to extracellular plasma membrane protein domain s. Non-specific adherence between cationic micelles of lysosphingolipids and the neuronal glycocatyx avoided by performing the experiments with lysosphingolipid concentrations below the critical micelle concentration. Neurons were analyzed for lysosphingolipid content as described above.

| Compound | lysosphingolipid content, 0 hours of incubation | lysosphingolipid content, 0.5 hours of incubation | lysosphingolipid content, 1.0 hours of incubation | lysosphingolipid content, 2.0 hours of incubation | lysosphingolipid content, 3.0 hours of incubation | content of sphingosine in the neurons following exposure [pmoles/mg protein] |
| --- | --- | --- | --- | --- | --- | --- |
| CCCCCCCCCCCCC/C=C/[C@@H](O)[C@@H](N)CO [sphingosine] | 85 ± 15 pmoles lysosphingolipid/mg pla | 85 ± 20 pmoles lysosphingolipid/mg pla | 110 ± 15 pmoles lysosphingolipid/mg pla | 105 ± 5 pmoles lysosphingolipid/mg pla | 115 ± 15 pmoles lysosphingolipid/mg pla | 430±70 |
| CCCCCCCCCCCCC/C=C/[C@@H](O)[C@@H](N)CO[C@@H]1O[C@H](CO)[C@H](O)[C@H](O)[C@H]1O [psychosine, lysocerebroside] | 25 ± 5 pmoles lysosphingolipid/mg pla | 35 ± 15 pmoles lysosphingolipid/mg pla | 45 ± 10 pmoles lysosphingolipid/mg pla | 80 ± 5 pmoles lysosphingolipid/mg pla | 80 ± 5 pmoles lysosphingolipid/mg pla | 220±45 |
